Patent US20050159427A1, “N-acylsulfonamide apoptosis promoters” (priority 2003, published 2005)

Experiments:
Test in all cases: Tumor cell viability (TABLE 1)
Assay type in all cases: cell-based
MDA-MB-435 = settings: Homo sapiens, MDA-MB-435, 48 h, read-out: EC50 (50% reduction in cell viability)
A549/ATCC = settings: Homo sapiens, read-out: EC50 (50% reduction in cell viability); A549/ATCC (Non-Small Cell Lung); serum-free conditions, 48 hour treatment; mean ± SEM
IGROV-1 = settings: Homo sapiens, read-out: EC50 (50% reduction in cell viability); IGROV-1 (Ovarian); serum-free conditions, 48 hour treatment; mean ± SEM
PC3 = settings: Homo sapiens, PC-3, read-out: EC50 (50% reduction in cell viability); PC3 (Prostate); serum-free conditions, 48 hour treatment; mean ± SEM

## CN(C)CC[C@H](CSc1ccccc1)Nc1ccc(S(=O)(=O)NC(=O)c2ccc(N3CCN(Cc4ccccc4-c4ccc(Cl)cc4)CC3)cc2)cc1[N+](=O)[O-] [EXAMPLE 2, N-(4-(4-((4′-chloro(1,1′-biphenyl)-2-yl)methyl)piperazin-1-yl)benzoyl)-4-(((1R)-3-(dimethylamino)-1-((phenylsulfanyl)methyl)propyl)amino)-3-nitrobenzenesulfonamide]
MDA-MB-435
  EC50: 2400 nM
A549/ATCC
  EC50: 5200 ± 200 nM
IGROV-1
  EC50: 1700 ± 600 nM
PC3
  EC50: 960 ± 380 nM
